Experimental data from patent US7053249B2, “Metal chelates and methods of using them for time-resolved fluorescence” (IDEXX Laboratories, Inc., priority 2002, dated 2006).

Legend:
[1] = pH range of stable chelate formation; format: physicochemical; settings: Eu chelate
Text: (§1) As mentioned earlier, it is necessary to form the enolate of the dicarbonyl compound for complex formation with metal to occur. […] It is usually (by not universally) desirable to stay below pH 9.0 to allow chelate stability under physiological assay conditions.

[2] = pKa of the enolic carbon of the β-diketone ligands; settings: β-diketone ligand
Text: as §1

pH above which a stable chelate is formed [1]: > 4.5 pH
pKa for the enolic carbon [2]: ~4.2
Compound: O=C(CC(=O)c1ccc2ccccc2c1)c1cc(F)cc(F)c1 [compound 4]
